ChEMBL document CHEMBL1201862, “PubChem BioAssay data set” (2004)
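Method: 48-hour compound exposure of cells in 96-well plates, five concentrations, linear interpolation of endpoints. The concentration for 50% growth inhibition is given as GI50.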 Calls of active or inactive are those of the source. Rule as the data show it: active = GI50 up to about 1.1 µM and inactive = higher.

Key:
Assay in all cases: inhibition of tumour cell growth, NCI panel, 48 h
786-0 = system: 786-0
A549 = system: A549
BT-549 = system: BT-549
CAKI-1 = system: CAKI-1
CCRF-CEM = system: CCRF-CEM
EKVX = system: EKVX
HOP-92 = system: HOP-92
HT-29 = system: HT-29
KM12 = system: KM12
M14 = system: M14
MOLT-4 = system: MOLT-4
NCI-H23 = system: NCI-H23
NCI-H460 = system: NCI-H460
NCI-H522 = system: NCI-H522
OVCAR-8 = system: OVCAR-8
PC-3 = system: PC-3
SF-268 = system: SF-268
TK-10 = system: TK-10
UACC-257 = system: UACC-257
UO-31 = system: UO-31

Row | Structure (SMILES) | GI50 (786-0) | GI50 (A549) | GI50 (BT-549) | GI50 (CAKI-1) | GI50 (CCRF-CEM) | GI50 (EKVX) | GI50 (HOP-92) | GI50 (HT-29) | GI50 (KM12) | GI50 (M14) | GI50 (MOLT-4) | GI50 (NCI-H23) | GI50 (NCI-H460) | GI50 (NCI-H522) | GI50 (OVCAR-8) | GI50 (PC-3) | GI50 (SF-268) | GI50 (TK-10) | GI50 (UACC-257) | GI50 (UO-31)
1 | CCN(Cc1cc(Cl)cc(C)c1O)Cc1c(O)ccc2ccccc12 | 16.8 µM (inactive) | 18.8 µM (inactive) | 13.3 µM (inactive) | 15.3 µM (inactive) | 10.5 µM (inactive) | 17.3 µM (inactive) | 11.2 µM (inactive) | 12.9 µM (inactive) | 17.3 µM (inactive) | 18.4 µM (inactive) | 5.36 µM (inactive) | 15.6 µM (inactive) | 18.2 µM (inactive) | 11.2 µM (inactive) | 17.7 µM (inactive) | 15.5 µM (inactive) | 18.2 µM (inactive) | 17.1 µM (inactive) | 15.8 µM (inactive) | 16.2 µM (inactive)
2 | CCOC(=O)C#Cc1ccc([N+](=O)[O-])cc1 | 1.55 µM (inactive) | 10.4 µM (inactive) | 2.18 µM (inactive) | 1.87 µM (inactive) | 1.1 µM (active) | 3.15 µM (inactive) | 1.8 µM (inactive) | 1.53 µM (inactive) | 1.82 µM (inactive) | 2.15 µM (inactive) | 1.73 µM (inactive) | 2.59 µM (inactive) | 12.4 µM (inactive) | 1.49 µM (inactive) | 2.37 µM (inactive) | 2.72 µM (inactive) | 2.52 µM (inactive) | 14.3 µM (inactive) | 3.32 µM (inactive) | 1.77 µM (inactive)
3 | Cc1c(NC(=S)Nc2ccc([N+](=O)[O-])cc2)c(=O)n(-c2ccccc2)n1C | > 100 µM (inactive) | > 100 µM (inactive) | > 100 µM (inactive) | > 100 µM (inactive) | > 100 µM (inactive) | > 100 µM (inactive) | > 100 µM (inactive) | > 100 µM (inactive) | > 100 µM (inactive) | > 100 µM (inactive) | 10.9 µM (inactive) | > 100 µM (inactive) | > 100 µM (inactive) | > 100 µM (inactive) | > 100 µM (inactive) | > 100 µM (inactive) | > 100 µM (inactive) | > 100 µM (inactive) | > 100 µM (inactive) | > 100 µM (inactive)
4 | O=C1/C(=C/c2ccccc2[N+](=O)[O-])N=C(c2ccccc2)N1c1nc2ccccc2s1 | 21.7 µM (inactive) | 34.2 µM (inactive) | 20 µM (inactive) | 34.1 µM (inactive) | < 0.01 µM (active) | 29 µM (inactive) | 21 µM (inactive) | 35.4 µM (inactive) | 17.9 µM (inactive) | 42.7 µM (inactive) | 5.92 µM (inactive) | 17.4 µM (inactive) | 27 µM (inactive) | 18.6 µM (inactive) | 17.4 µM (inactive) | 31 µM (inactive) | 20.5 µM (inactive) | 49.2 µM (inactive) | 65 µM (inactive) | 31.6 µM (inactive)
5 | NS(=O)(=O)c1ccc(Nc2c3ccccc3nc3c(C(=O)NCCO)cccc23)cc1 | 0.145 µM (active) | 0.178 µM (active) | 0.145 µM (active) | 0.198 µM (active) | 0.0335 µM (active) | 0.251 µM (active) | 0.148 µM (active) | 0.16 µM (active) | 0.137 µM (active) | 0.182 µM (active) | 0.0241 µM (active) | 0.132 µM (active) | 0.0439 µM (active) | 0.127 µM (active) | 0.173 µM (active) | 0.177 µM (active) | 0.141 µM (active) | 0.27 µM (active) | 0.17 µM (active) | 0.181 µM (active)
6 | CCOc1cc(NC(C)=O)ccc1C(=O)NN1C(=O)CSC1c1ccccc1 (stereo not given) | > 100 µM (inactive) | 77.3 µM (inactive) | 34.9 µM (inactive) | > 100 µM (inactive) | 37.8 µM (inactive) | 91 µM (inactive) | 42.5 µM (inactive) | > 100 µM (inactive) | 71.4 µM (inactive) | > 100 µM (inactive) | < 0.01 µM (active) | 66.7 µM (inactive) | > 100 µM (inactive) | 43.2 µM (inactive) | 48 µM (inactive) | 78.7 µM (inactive) | > 100 µM (inactive) | 48.8 µM (inactive) | 63.8 µM (inactive) | 40.7 µM (inactive)
7 | C=C1CCOC2(C(O)C(C)(O)CO)NC(=O)C1(O)NC2=O (stereo not given) | > 100 µM (inactive) | > 100 µM (inactive) | > 100 µM (inactive) | > 100 µM (inactive) | > 100 µM (inactive) | > 100 µM (inactive) | > 100 µM (inactive) | > 100 µM (inactive) | > 100 µM (inactive) | > 100 µM (inactive) | > 100 µM (inactive) | > 100 µM (inactive) | > 100 µM (inactive) | > 100 µM (inactive) | > 100 µM (inactive) | > 100 µM (inactive) | > 100 µM (inactive) | > 100 µM (inactive) | > 100 µM (inactive) | > 100 µM (inactive)
